Experimental data published in ChEMBL document CHEMBL1201862, “PubChem BioAssay data set” (2004).
Counter-ions that a name gives are not always drawn.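 Values below derive from 48-hour exposures of cells grown in 96-well plates, with endpoints linearly interpolated between the two concentrations bracketing the appropriate inhibition level. The concentration for 50% growth inhibition is given as GI50.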 Active and inactive are the calls of the source. No stated cut-off is given here; in the data, active = GI50 up to about 1.1 µM and inactive = higher.

What was measured:
Test in all cases: inhibition of tumour cell growth, NCI panel, 48 h
SNB-75 = tested on: SNB-75
OVCAR-3 = tested on: OVCAR-3
MOLT-4 = tested on: MOLT-4
NCI-H23 = tested on: NCI-H23
COLO 205 = tested on: COLO 205
EKVX = tested on: EKVX
K562 = tested on: K562
SW-620 = tested on: SW-620
A549 = tested on: A549
CAKI-1 = tested on: CAKI-1
HOP-62 = tested on: HOP-62
IGROV-1 = tested on: IGROV-1
HCT-116 = tested on: HCT-116
NCI-H522 = tested on: NCI-H522
Malme-3M = tested on: Malme-3M
HCC 2998 = tested on: HCC 2998
OVCAR-8 = tested on: OVCAR-8
SK-MEL-2 = tested on: SK-MEL-2
M14 = tested on: M14
TK-10 = tested on: TK-10

Measured: GI50

CC(=O)Oc1ccc(C2COc3cc(OC(C)=O)c(OC(C)=O)cc3C2)cc1 (centres undefined)
inactive: SNB-75 6.07 µM | OVCAR-3 13.7 µM | MOLT-4 18.3 µM | NCI-H23 16 µM | COLO 205 17.9 µM | EKVX 17.3 µM | K562 16.3 µM | SW-620 17.4 µM | A549 22.3 µM | CAKI-1 16.3 µM | HOP-62 25.4 µM | IGROV-1 12.8 µM | HCT-116 17.4 µM | NCI-H522 2.8 µM | Malme-3M 16.5 µM | HCC 2998 21.3 µM | OVCAR-8 18 µM | SK-MEL-2 14.7 µM

COc1ccc(C(O)/C(=N\NC(N)=S)c2nc3ccc([N+](=O)[O-])cc3nc2O)cc1OC (centres undefined)
inactive: M14 > 100 µM | SNB-75 > 100 µM | MOLT-4 78.3 µM | NCI-H23 > 100 µM | COLO 205 > 100 µM | EKVX > 100 µM | K562 > 100 µM | SW-620 > 100 µM | A549 > 100 µM | HOP-62 > 100 µM | IGROV-1 > 100 µM | NCI-H522 32.4 µM | Malme-3M > 100 µM | HCC 2998 > 100 µM | OVCAR-8 > 100 µM | SK-MEL-2 > 100 µM | TK-10 > 100 µM

COc1cc2c(cc1OC)C1Cc3cc(OC)c(OC)cc3C(C2)O1
inactive: M14 > 100 µM | SNB-75 > 100 µM | OVCAR-3 > 100 µM | MOLT-4 49.1 µM | NCI-H23 > 100 µM | COLO 205 > 100 µM | EKVX > 100 µM | K562 46.7 µM | SW-620 > 100 µM | A549 > 100 µM | CAKI-1 44.9 µM | HOP-62 > 100 µM | IGROV-1 49.8 µM | HCT-116 > 100 µM | HCC 2998 > 100 µM | OVCAR-8 > 100 µM | SK-MEL-2 > 100 µM | TK-10 > 100 µM

CCCc1c(-c2ccccc2)[nH]c2ccccc2c1=O
inactive: M14 36.2 µM | OVCAR-3 31.5 µM | MOLT-4 > 100 µM | NCI-H23 > 100 µM | COLO 205 > 100 µM | EKVX 37.6 µM | K562 20.8 µM | SW-620 > 100 µM | HOP-62 34.1 µM | IGROV-1 > 100 µM | HCT-116 24.3 µM | Malme-3M 33 µM | HCC 2998 25.2 µM | SK-MEL-2 27.2 µM | TK-10 32.6 µM

CN1CCc2[nH]c3ccccc3c2C1
inactive: SNB-75 > 100 µM | OVCAR-3 > 100 µM | MOLT-4 > 100 µM | NCI-H23 > 100 µM | COLO 205 > 100 µM | EKVX > 100 µM | K562 > 100 µM | SW-620 > 100 µM | A549 > 100 µM | CAKI-1 > 100 µM | HOP-62 > 100 µM | IGROV-1 > 100 µM | HCT-116 > 100 µM | NCI-H522 > 100 µM | Malme-3M > 100 µM | HCC 2998 > 100 µM | OVCAR-8 > 100 µM | SK-MEL-2 > 100 µM

CSCSCC(CO)NC(=O)/C(C)=C\c1c(C)[nH]c(=O)[nH]c1=O (centres undefined)
inactive: SNB-75 > 250 µM | OVCAR-3 > 250 µM | MOLT-4 > 250 µM | NCI-H23 > 250 µM | COLO 205 > 250 µM | EKVX > 250 µM | K562 > 250 µM | SW-620 237 µM | A549 > 250 µM | CAKI-1 18.3 µM | HOP-62 > 250 µM | IGROV-1 > 250 µM | HCT-116 > 250 µM | NCI-H522 > 250 µM | Malme-3M > 250 µM | HCC 2998 > 250 µM | OVCAR-8 > 250 µM | SK-MEL-2 > 250 µM

O=C(N[C@H]1c2ccsc2/C(=N/O)[C@H]1O)C(F)(F)F
inactive: M14 > 100 µM | SNB-75 > 100 µM | OVCAR-3 > 100 µM | MOLT-4 > 100 µM | NCI-H23 > 100 µM | COLO 205 > 100 µM | EKVX > 100 µM | K562 > 100 µM | SW-620 > 100 µM | A549 > 100 µM | CAKI-1 > 100 µM | HOP-62 > 100 µM | IGROV-1 > 100 µM | HCT-116 > 100 µM | Malme-3M > 100 µM | HCC 2998 > 100 µM | OVCAR-8 > 100 µM | SK-MEL-2 > 100 µM | TK-10 > 100 µM

Cc1cc(C)c(NC(=O)/C=C/c2ccccc2)c(C)c1
inactive: M14 > 100 µM | SNB-75 3.93 µM | OVCAR-3 > 100 µM | MOLT-4 7.64 µM | NCI-H23 > 100 µM | EKVX > 100 µM | K562 32.6 µM | SW-620 > 100 µM | A549 > 100 µM | HOP-62 38.9 µM | IGROV-1 > 100 µM | NCI-H522 6 µM | HCC 2998 > 100 µM | OVCAR-8 > 100 µM | SK-MEL-2 > 100 µM | TK-10 > 100 µM

CCCCn1cc[n+](-c2nc3ccccc3n2C)c1
inactive: M14 > 100 µM | SNB-75 45.4 µM | OVCAR-3 > 100 µM | MOLT-4 > 100 µM | NCI-H23 > 100 µM | EKVX > 100 µM | K562 > 100 µM | SW-620 > 100 µM | A549 > 100 µM | CAKI-1 > 100 µM | HOP-62 > 100 µM | IGROV-1 > 100 µM | HCT-116 > 100 µM | NCI-H522 > 100 µM | Malme-3M > 100 µM | HCC 2998 > 100 µM | OVCAR-8 > 100 µM | SK-MEL-2 > 100 µM | TK-10 > 100 µM

c1ccc(Nc2nnc(-c3nsc4ccccc34)o2)cc1
inactive: M14 > 100 µM | SNB-75 34.9 µM | OVCAR-3 14 µM | MOLT-4 > 100 µM | NCI-H23 91.4 µM | COLO 205 > 100 µM | EKVX 51.3 µM | K562 59.6 µM | SW-620 > 100 µM | A549 > 100 µM | HOP-62 32.9 µM | IGROV-1 > 100 µM | HCT-116 74.1 µM | HCC 2998 > 100 µM | OVCAR-8 48.4 µM | SK-MEL-2 > 100 µM | TK-10 > 100 µM

CNCCC=C1c2ccccc2CCc2ccccc21 [NORTRIPTYLINE HYDROCHLORIDE]
inactive: M14 4.25 µM | SNB-75 6.47 µM | OVCAR-3 11.4 µM | MOLT-4 12.1 µM | NCI-H23 15.7 µM | COLO 205 7.62 µM | EKVX 15.2 µM | K562 11.4 µM | SW-620 17.7 µM | A549 16.6 µM | CAKI-1 13.8 µM | HOP-62 14.7 µM | IGROV-1 16.7 µM | HCT-116 14.6 µM | NCI-H522 14.6 µM | Malme-3M 15.8 µM | OVCAR-8 17 µM | SK-MEL-2 15.4 µM | TK-10 14.8 µM
